biological target: IDH1-R132H recombinant protein (Homo sapiens (Human), UniProt O75874, R132H); assay: IDH1-R132H enzymatic assay; assay type: biochemical; details: inhibition of NADPH consumption, diaphorase/resazurin readout; read-out: Enzyme IDH1 R132H Range IC50
Method: Assays were performed in a 384-well black plate. […] After the plate was centrifuged briefly, an aliquot of 10 μL of 2 mM α-ketoglutarate and 20 μM NADPH solution prepared in assay buffer was then added to each well and the reaction was maintained at 25° C. for 45 minutes. An aliquot of 10 μL of diaphorase solution (0.15 U/mL diaphorase and 30 μM Resazurin in assay buffer) was added to each well. […] The IC50 of a given compound was calculated by fitting the dose response curve of inhibition of NADPH consumption at a given concentration with the four parameter logistic equation.

Chain of IDH1-R132H recombinant protein (O75874 whole entry R132H): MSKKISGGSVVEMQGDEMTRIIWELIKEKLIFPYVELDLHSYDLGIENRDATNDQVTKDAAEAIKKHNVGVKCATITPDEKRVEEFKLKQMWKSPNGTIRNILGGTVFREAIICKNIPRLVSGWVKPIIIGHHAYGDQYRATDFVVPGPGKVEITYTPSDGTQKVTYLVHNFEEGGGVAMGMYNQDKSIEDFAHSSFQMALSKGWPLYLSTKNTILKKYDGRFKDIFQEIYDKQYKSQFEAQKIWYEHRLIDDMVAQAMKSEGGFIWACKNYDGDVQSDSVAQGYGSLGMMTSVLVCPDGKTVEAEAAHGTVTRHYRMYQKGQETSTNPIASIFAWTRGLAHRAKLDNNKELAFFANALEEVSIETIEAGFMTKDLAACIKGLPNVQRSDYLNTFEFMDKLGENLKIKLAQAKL

Row | IC50 [nM] | Structure (SMILES)
1 | < 100 | COc1nc(C#N)ccc1NCc1cc2cc(Cl)ccc2[nH]c1=O [Compound I-61, 5-{[(6-chloro-2-oxo-1,2-dihydroquinolin-3-yl)methyl]amino}-6-methoxypyridine-2-carbonitrile]
2 | 1000 to 10000 | C[C@H](Nc1nccc(-c2cccn2C)c1F)c1cc2cc(Cl)ccc2[nH]c1=O [Compound I-42, 6-chloro-3-[(1S)-1-{[3-fluoro-4-(1-methyl-1H-pyrrol-2-yl)pyridin-2-yl]amino}ethyl]-1,2-dihydroquinolin-2-one]
3 | 1000 to 10000 | C[C@H](Nc1cccc(N2CCCS2(=O)=O)n1)c1cc2cc(Cl)ccc2[nH]c1=O [Compound I-35, 2-(6-{[(1S)-1-(6-chloro-2-oxo-1,2-dihydroquinolin-3-yl)ethyl]amino}pyridin-2-yl)-1λ^6,2-thiazolidine-1,1-dione]
4 | > 10000 | CC(C)n1nccc1-c1ccnc(N[C@@H](C)c2cc3cc(Cl)ccc3[nH]c2=O)c1F [Compound I-57, 6-chloro-3-[(1S)-1-({3-fluoro-4-[1-(propan-2-yl)-1H-pyrazol-5-yl]pyridin-2-yl}amino)ethyl]-1,2-dihydroquinolin-2-one]
5 | 1000 to 10000 | O=c1[nH]c2ccc(Cl)cc2cc1CNc1ccc(F)cn1 [Compound I-71, 6-chloro-3-{[(5-fluoropyridin-2-yl)amino]methyl}-1,2-dihydroquinolin-2-one]
6 | 1000 to 10000 | Cc1cn(-c2ccnc(N[C@@H](C)c3cc4cc(Cl)ccc4[nH]c3=O)c2F)cn1 [Compound I-38, 6-chloro-3-[(1S)-1-{[3-fluoro-4-(4-methyl-1H-imidazol-1-yl)pyridin-2-yl]amino}ethyl]-1,2-dihydroquinolin-2-one]
7 | 100 to 1000 | Cc1c(N2CCOC2=O)ccnc1N[C@@H](C)c1cc2cc(Cl)ccc2[nH]c1=O [Compound I-15, 6-chloro-3-[(1S)-1-{[3-methyl-4-(2-oxo-1,3-oxazolidin-3-yl)pyridin-2-yl]amino}ethyl]-1,2-dihydroquinolin-2-one]
8 | 1000 to 10000 | Cc1cc(C)nc(NCc2cc3cc(Cl)ccc3[nH]c2=O)c1 [Compound I-69, 6-chloro-3-{[(4,6-dimethylpyridin-2-yl)amino]methyl}-1,2-dihydroquinolin-2-one]
9 | 1000 to 10000 | COC(=O)c1cccc(NCc2cc3cc(Cl)ccc3[nH]c2=O)n1 [Compound I-73, methyl 6-{[(6-chloro-2-oxo-1,2-dihydroquinolin-3-yl)methyl]amino}pyridine-2-carboxylate]
10 | 100 to 1000 | Cc1cc2cc(CNc3ccc(C#N)cn3)c(=O)[nH]c2cc1C [Compound I-80, 6-{[(6,7-dimethyl-2-oxo-1,2-dihydroquinolin-3-yl)methyl]amino}pyridine-3-carbonitrile]
11 | > 10000 | O=c1[nH]c2ccc(Cl)cc2cc1CNc1cc(C(F)(F)F)ccn1 [Compound I-79, 6-chloro-3-({[4-(trifluoromethyl)pyridin-2-yl]amino}methyl)-1,2-dihydroquinolin-2-one]
12 | 1000 to 10000 | O=c1[nH]c2ccc(Cl)cc2cc1CNc1ccc(Cl)cn1 [Compound I-75, 6-chloro-3-{[(5-chloropyridin-2-yl)amino]methyl}-1,2-dihydroquinolin-2-one]
13 | 100 to 1000 | Cc1nc(NC2(c3cc4cc(Cl)ccc4[nH]c3=O)CC2)ccc1C#N [Compound I-31, 6-{[1-(6-chloro-2-oxo-1,2-dihydroquinolin-3-yl)cyclopropyl]amino}-2-methylpyridine-3-carbonitrile]
14 | 1000 to 10000 | COc1ccc2[nH]c(=O)c(CNc3ccc(C#N)cn3)cc2c1 [Compound I-81, 6-{[(6-methoxy-2-oxo-1,2-dihydroquinolin-3-yl)methyl]amino}pyridine-3-carbonitrile]
15 | > 10000 | Cc1noc(C)c1-c1ccnc(N[C@@H](C)c2cc3cc(Cl)ccc3[nH]c2=O)c1F [Compound I-54, 6-chloro-3-[(1S)-1-{[4-(dimethyl-1,2-oxazol-4-yl)-3-fluoropyridin-2-yl]amino}ethyl]-1,2-dihydroquinolin-2-one]
16 | 1000 to 10000 | N#Cc1ccc(NCc2cc3cc(Cl)ccc3[nH]c2=O)nc1C(F)(F)F [Compound I-60, 6-{[(6-chloro-2-oxo-1,2-dihydroquinolin-3-yl)methyl]amino}-2-(trifluoromethyl)pyridine-3-carbonitrile]
17 | 1000 to 10000 | C[C@H](Nc1cc(F)cc(N2CCOC2=O)n1)c1cc2cc(Cl)ccc2[nH]c1=O [Compound I-16, 6-chloro-3-[(1S)-1-{[4-fluoro-6-(2-oxo-1,3-oxazolidin-3-yl)pyridin-2-yl]amino}ethyl]-1,2-dihydroquinolin-2-one]
18 | > 10000 | C[C@H](Nc1nccc(-c2ccnn2C2CCCCO2)c1F)c1cc2cc(Cl)ccc2[nH]c1=O (stereo partly drawn) [Compound I-55, 6-chloro-3-[(1S)-1-({3-fluoro-4-[1-(oxan-2-yl)-1H-pyrazol-5-yl]pyridin-2-yl}amino)ethyl]-1,2-dihydroquinolin-2-one]

Row | IC50 [nM] | Structure (SMILES)
19 | 1000 to 10000 | Cc1c(-c2ccnc(N[C@@H](C)c3cc4cc(Cl)ccc4[nH]c3=O)c2F)cnn1C [Compound I-45, 6-chloro-3-[(1S)-1-{[4-(1,5-dimethyl-1H-pyrazol-4-yl)-3-fluoropyridin-2-yl]amino}ethyl]-1,2-dihydroquinolin-2-one]
20 | 100 to 1000 | Cc1nc(NCc2cc3cc(Cl)c(OCc4ccccn4)cc3[nH]c2=O)ccc1C#N [Compound I-84, 6-({[6-chloro-2-oxo-7-(pyridin-2-ylmethoxy)-1,2-dihydroquinolin-3-yl]methyl}amino)-2-methylpyridine-3-carbonitrile]
21 | > 10000 | COc1ccc2[nH]c(=O)c(CNc3cc(C)ccn3)cc2c1 [Compound I-82, 6-methoxy-3-{[(4-methylpyridin-2-yl)amino]methyl}-1,2-dihydroquinolin-2-one]
22 | 1000 to 10000 | Cc1n[nH]c(C)c1-c1ccnc(N[C@@H](C)c2cc3cc(Cl)ccc3[nH]c2=O)c1F [Compound I-51, 6-chloro-3-[(1S)-1-{[4-(3,5-dimethyl-1H-pyrazol-4-yl)-3-fluoropyridin-2-yl]amino}ethyl]-1,2-dihydroquinolin-2-one]
23 | > 10000 | N#Cc1ccc(NCc2cc3cc(Cl)ccc3[nH]c2=O)nc1Cl [Compound I-62, 2-chloro-6-{[(6-chloro-2-oxo-1,2-dihydroquinolin-3-yl)methyl]amino}pyridine-3-carbonitrile]
24 | > 10000 | N#Cc1ccc(NCc2cc3cc(Cl)ccc3[nH]c2=O)nc1N1CCOC1=O [Compound I-63, 6-{[(6-chloro-2-oxo-1,2-dihydroquinolin-3-yl)methyl]amino}-2-(2-oxo-1,3-oxazolidin-3-yl)pyridine-3-carbonitrile]
25 | 1000 to 10000 | C[C@H](Nc1nccc(-n2ccnc2)c1F)c1cc2cc(Cl)ccc2[nH]c1=O [Compound I-37, 6-chloro-3-[(1S)-1-{[3-fluoro-4-(1H-imidazol-1-yl)pyridin-2-yl]amino}ethyl]-1,2-dihydroquinolin-2-one]
26 | > 10000 | N#Cc1ccc(NCc2cc3cc(Cl)ccc3[nH]c2=O)cn1 [Compound I-78, 5-{[(6-chloro-2-oxo-1,2-dihydroquinolin-3-yl)methyl]amino}pyridine-2-carbonitrile]
27 | > 10000 | CC(C)C1CCCN1c1nc(NCc2cc3cc(Cl)ccc3[nH]c2=O)ccc1C#N (stereo not drawn) [Compound I-64, 6-{[(6-chloro-2-oxo-1,2-dihydroquinolin-3-yl)methyl]amino}-2-[2-(propan-2-yl)pyrrolidin-1-yl]pyridine-3-carbonitrile]
28 | 100 to 1000 | Cc1cc(N2CCOC2=O)cc(N[C@@H](C)c2cc3cc(Cl)ccc3[nH]c2=O)n1 [Compound I-12, 6-chloro-3-[(1S)-1-{[6-methyl-4-(2-oxo-1,3-oxazolidin-3-yl)pyridin-2-yl]amino}ethyl]-1,2-dihydroquinolin-2-one]
29 | > 10000 | O=c1[nH]c2ccc(Cl)cc2cc1CNc1ccc(C(F)(F)F)cn1 [Compound I-77, 6-chloro-3-({[5-(trifluoromethyl)pyridin-2-yl]amino}methyl)-1,2-dihydroquinolin-2-one]
30 | 1000 to 10000 | COc1ccnc(NCc2cc3cc(Cl)ccc3[nH]c2=O)c1 [Compound I-70, 6-chloro-3-{[(4-methoxypyridin-2-yl)amino]methyl}-1,2-dihydroquinolin-2-one]
31 | 100 to 1000 | Cc1nc(NC(C)(C)c2cc3cc(Cl)ccc3[nH]c2=O)ccc1C#N [Compound I-32, 6-{[2-(6-chloro-2-oxo-1,2-dihydroquinolin-3-yl)propan-2-yl]amino}-2-methylpyridine-3-carbonitrile]
32 | > 10000 | CC(C)CN(C)c1nc(NCc2cc3cc(Cl)ccc3[nH]c2=O)ccc1C#N [Compound I-65, 6-{[(6-chloro-2-oxo-1,2-dihydroquinolin-3-yl)methyl]amino}-2-[methyl(2-methylpropyl)amino]pyridine-3-carbonitrile]
33 | 1000 to 10000 | Cc1cscc1-c1ccnc(N[C@@H](C)c2cc3cc(Cl)ccc3[nH]c2=O)c1F [Compound I-46, 6-chloro-3-[(1S)-1-{[3-fluoro-4-(4-methylthiophen-3-yl)pyridin-2-yl]amino}ethyl]-1,2-dihydroquinolin-2-one]
34 | 100 to 1000 | CC(C)c1cccnc1NCc1cc2cc(Cl)ccc2[nH]c1=O [Compound I-68, 6-chloro-3-({[3-(propan-2-yl)pyridin-2-yl]amino}methyl)-1,2-dihydroquinolin-2-one]
35 | 1000 to 10000 | Cc1ccnc(NCc2cc3cc(Cl)ccc3[nH]c2=O)c1 [Compound I-74, 6-chloro-3-{[(4-methylpyridin-2-yl)amino]methyl}-1,2-dihydroquinolin-2-one]
36 | > 10000 | COc1nc(NCc2cc3cc(Cl)ccc3[nH]c2=O)ccc1C#N [Compound I-66, 6-{[(6-chloro-2-oxo-1,2-dihydroquinolin-3-yl)methyl]amino}-2-methoxypyridine-3-carbonitrile]
